The values below come from publication PMC6482079 (European journal of pharmaceutical sciences : official …, 2019).

Experiment in all cases: microbe, parasite or virus in culture
Holding throughout (assay type): cell-based, influenza A virus
Details in all cases: for Drug sensitivity: sensitivity of the strain to the named drug

Experiment [1] concerns A/Denmark/528/2009 (H1N1).
Experiment [2] deals with A/Switzerland/9715293/2013 (H3N2).
For experiment [3], the system named is A/Washington/29/2009 (H1N1).
The next experiment has as its system A/WSN/1933 (H1N1).
For experiment [4], the system named is A/North Carolina/39/2009 (H1N1).
In experiment [5] the test system is A/California/07/2009 (H1N1).
The subject of a further experiment is A/Texas/04/2009 (H1N1).

`Cc1cc(OCc2nnc(SC3CCCC3)n2-c2cccnc2)ccc1-c1ccc(S(C)(=O)=O)cc1` [NMS-873]: the “SI (selectivity index)” value in experiment [1] (CC50/EC50) turned out to be 70; in experiment [2] (CC50/EC50), 129; in experiment [3] (CC50/EC50), 66; in the experiment on A/WSN/1933 (H1N1) (CC50/EC50), 74; in experiment [4] (CC50/EC50), 78; in experiment [5] (CC50/EC50), 49. Moreover, the “SI (selectivity index)” value in the experiment on A/Texas/04/2009 (H1N1) (CC50/EC50) was 71. Besides, the EC50 was 39 ± 4 nM in experiment [1] (Influenza A virus, H1N1, MDCK); 21 ± 2 nM in experiment [2] (Influenza A virus, H3N2, MDCK); 41 ± 5 nM in experiment [3] (Influenza A virus, H1N1, MDCK); 37 ± 2 nM in the experiment with A/WSN/1933 (H1N1) (Influenza A virus, H1N1|WSN, MDCK); 35 ± 5 nM in experiment [4] (Influenza A virus, H1N1, MDCK); 56 ± 5 nM in experiment [5] (Influenza A virus, H1N1, MDCK). This molecule also showed an EC50 with A/Texas/04/2009 (H1N1) (Influenza A virus, H1N1, MDCK) of 38 ± 5 nM.
As to `CCC(CC)O[C@@H]1C=C(C(=O)O)C[C@H](N)[C@H]1NC(C)=O` [Oseltamivir carboxylate], the Drug sensitivity entry in experiment [1] is recorded as “Amantadine Resistant Oseltamivir Resistant”; in experiment [2], “Sensitive”; in experiment [3], “Amantadine Resistant Oseltamivir Resistant”; in the experiment with A/WSN/1933 (H1N1) it was “Sensitive”; in experiment [4], “Amantadine Resistant Oseltamivir Resistant”; in experiment [5], “Sensitive”. In addition, the Drug sensitivity result in the experiment with A/Texas/04/2009 (H1N1) is recorded as “Amantadine Resistant Oseltamivir Resistant”.
For `NC12CC3CC(CC(C3)C1)C2` [Amantadine, amantadine], the Drug sensitivity entry is “Amantadine Resistant Oseltamivir Resistant” in experiment [1]; “Amantadine Resistant Oseltamivir Sensitive” in experiment [2]; “Amantadine Resistant Oseltamivir Resistant” in experiment [3]; “Amantadine Resistant Oseltamivir Sensitive” with A/WSN/1933 (H1N1); “Amantadine Resistant Oseltamivir Resistant” in experiment [4]; “Amantadine Resistant Oseltamivir Sensitive” in experiment [5]. Moreover, the Drug sensitivity result with A/Texas/04/2009 (H1N1) was “Amantadine Resistant Oseltamivir Resistant”.

Broadly, the EC50 is the concentration needed to bring the measured effect to its halfway point.
